Three compounds from US11655256B1, “Processes for making a solid-state form of relugolix” (Johnson Matthey Public Limited Company, priority 2020, dated 2023) can be followed below.

What all share (assay type): physicochemical
Series [1] is described as follows: Stability under high humidity at ambient temperatures. As to conditions: about 97% humidity, over a month.
The nature of series [2]: Stability on prolonged drying under vacuum. The note with it: about 2 days under vacuum at about 70° C. How it is done: Form A of the DMF solvate of relugolix is stable, i.e., it is unchanged after prolonged drying (e.g., about 2 days) under vacuum at about 70° C.
A short description of series [3]: Dynamic vapor sorption (DVS). How it is done:
DVS samples are analyzed using a TA Instruments Q5000SA gravimetric water sorption analyzer. The relative humidity is adjusted between about 0-95% and the weight of the sample is continuously monitored and recorded with respect to the relative humidity and time.

As to `CONC(=O)Nc1ccc(-c2sc3c(c2CN(C)C)c(=O)n(-c2ccc(OC)nn2)c(=O)n3Cc2c(F)cccc2F)cc1` [Form A of the DMF solvate of relugolix, 1-[4-[1-[(2,6-difluorophenyl)-methyl]-5-[(dimethylamino)methyl]-3-(6-methoxypyridazin-3-yl)-2,4-dioxothieno-[2,3-d]pyrimidin-6-yl]phenyl]-3-methoxyurea], the stability under humidity entry in series [1] is listed as “remains unchanged”. The “stability after prolonged drying” value in series [2] is given as “unchanged”. The “DVS loss of mass” value in series [3] (at about 90% RH) is on record as “about 1%”.

`CONC(=O)Nc1ccc(-c2sc3c(c2CN(C)C)c(=O)n(-c2ccc(OC)nn2)c(=O)n3Cc2c(F)cccc2F)cc1` [Form B of anhydrous relugolix, 1-[4-[1-[(2,6-difluorophenyl)-methyl]-5-[(dimethylamino)methyl]-3-(6-methoxypyridazin-3-yl)-2,4-dioxothieno-[2,3-d]pyrimidin-6-yl]phenyl]-3-methoxyurea]: the “stability at various humidity levels” value in series [3] (evidenced by XRPD after DVS) is listed as “remains stable”. Moreover, in series [3] (relative humidity levels between about 0 to about 95%), the DVS weight loss entry is listed as “about 7%”.

In the case of `CONC(=O)Nc1ccc(-c2sc3c(c2CN(C)C)c(=O)n(-c2ccc(OC)nn2)c(=O)n3Cc2c(F)cccc2F)cc1` [Form T of anhydrous relugolix, 1-[4-[1-[(2,6-difluorophenyl)-methyl]-5-[(dimethylamino)methyl]-3-(6-methoxypyridazin-3-yl)-2,4-dioxothieno-[2,3-d]pyrimidin-6-yl]phenyl]-3-methoxyurea], in series [3] (relative humidity (RH) levels between 0 to 90%), the “DVS weight % change” value is listed as “about 6%”.
